We go through 14 compounds from ChEMBL document CHEMBL2303647, “Data associated with the publication PLoS ONE, 8(3), e57888, (2013) PMID: 23505445. Compounds: GSK PKIS; Assays: NIH NCATS”.

SMILES strings stand for the structures.

Assay [1] has as its target T1, Coelenterazine h 2-monooxygenase (Renilla reniformis, UniProt P27652).
T1 sequence (P27652 whole entry): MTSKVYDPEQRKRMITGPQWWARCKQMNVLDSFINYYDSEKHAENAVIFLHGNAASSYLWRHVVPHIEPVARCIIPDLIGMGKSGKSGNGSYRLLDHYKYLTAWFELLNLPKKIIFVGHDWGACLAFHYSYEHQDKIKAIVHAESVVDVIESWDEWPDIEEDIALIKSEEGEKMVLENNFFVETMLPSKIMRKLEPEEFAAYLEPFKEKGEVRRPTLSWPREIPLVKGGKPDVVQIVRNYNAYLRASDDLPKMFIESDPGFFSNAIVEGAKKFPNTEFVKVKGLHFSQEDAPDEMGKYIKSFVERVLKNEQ
Description: GSK_PKIS: Inhibition of Sea Pansy Luciferase (Data from PubChem: AID 652015) [NIH NCATS]

Assay [2] has as its target Luciferin 4-monooxygenase (Photinus pyralis, UniProt P08659).
Description: GSK_PKIS: Inhibition of Firefly Luciferase (Data from PubChem: AID 652016) [NIH NCATS]

Chain of Luciferin 4-monooxygenase (P08659 whole entry): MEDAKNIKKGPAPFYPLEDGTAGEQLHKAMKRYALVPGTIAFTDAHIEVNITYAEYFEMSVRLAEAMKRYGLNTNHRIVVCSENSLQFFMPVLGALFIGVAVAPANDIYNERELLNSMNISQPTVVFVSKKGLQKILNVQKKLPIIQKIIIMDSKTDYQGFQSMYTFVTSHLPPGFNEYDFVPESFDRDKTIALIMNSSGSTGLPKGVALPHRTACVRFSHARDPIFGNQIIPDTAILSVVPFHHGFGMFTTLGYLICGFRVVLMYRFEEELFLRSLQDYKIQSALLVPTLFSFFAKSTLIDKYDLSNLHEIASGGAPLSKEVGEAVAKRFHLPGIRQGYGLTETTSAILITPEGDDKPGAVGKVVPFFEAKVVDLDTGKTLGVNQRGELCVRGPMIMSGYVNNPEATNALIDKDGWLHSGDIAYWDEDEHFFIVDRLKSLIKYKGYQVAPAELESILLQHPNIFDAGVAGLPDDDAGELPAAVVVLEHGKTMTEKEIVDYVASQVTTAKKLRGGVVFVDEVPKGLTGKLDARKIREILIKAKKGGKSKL

For `Cc1ccc2c(-c3ccnc(Nc4ccccc4)n3)c(-c3ccc(F)cc3)nn2n1` [GW833373X], the half-maximal activity concentration (AC50) entry in assay [1] and in assay [2] was “Phenotype: Inactive; Curve_Description: None” in each case.

Consider `COc1cc(Nc2ncc3c(C)nc(-c4cccc(C(F)(F)F)c4)n3n2)cc(OC)c1OC` [GW837331X], for which the concentration at half-maximal activity (AC50) entry in assay [1] and in assay [2] was “Phenotype: Inactive; Curve_Description: None” each time.

Consider `COc1cc2ncn(-c3cc(OCc4ccccc4C(F)(F)F)c(C(N)=O)s3)c2cc1OC` [GW843682X], for which the AC50 result in assay [1] and in assay [2] was “Phenotype: Inactive; Curve_Description: None” in each case.

For `COc1cc2ncn(-c3cc(OCc4ccccc4Cl)c(C(N)=O)s3)c2cc1OC` [GW852849X], the AC50 entry in assay [1] and in assay [2] was “Phenotype: Inactive; Curve_Description: None” throughout.

In the case of `NC(=O)c1sc(-n2cnc3ccc(C(F)(F)F)cc32)cc1OCc1ccccc1Br` [GW853606X], the AC50 result in assay [1] and in assay [2] was “Phenotype: Inactive; Curve_Description: None” throughout.

`NC(=O)c1sc(-n2cnc3cc(C(F)(F)F)ccc32)cc1OCc1ccccc1Br` [GW853609X]: the AC50 entry in assay [1] and in assay [2] was “Phenotype: Inactive; Curve_Description: None” in each case.

For `Nc1ncc(-c2cccc(S(N)(=O)=O)c2)c2scc(-c3ccc(F)c(Cl)c3)c12` [GW856804X], the AC50 (as a rule, the concentration at which the activity in the assay is half-maximal) is 36.6 µM in assay [1] (read-out: AC50) and “Phenotype: Inactive; Curve_Description: None” in assay [2].

On to `COc1cc(Nc2ncc3c(C)nc(-c4cccc(Oc5ccccc5)c4)n3n2)cc(OC)c1OC` [GW861893X], for which the AC50 entry in assay [1] and in assay [2] was “Phenotype: Inactive; Curve_Description: None” throughout.

Regarding `O=C(O[C@H]1CN[C@H](C#Cc2cc3ncnc(Nc4ccc(OCc5cccc(F)c5)c(Cl)c4)c3s2)C1)N1CCOCC1` [GW869810X], the concentration at half-maximal activity (AC50) result was “Phenotype: Inactive; Curve_Description: None” in assay [1] and 20.6 µM in assay [2] (read-out: AC50).

With `Cc1nc(-c2ccccc2)n2nc(NCCCN3CCOCC3)ncc12` [GW874091X], the concentration at half-maximal activity (AC50) result in assay [1] and in assay [2] was “Phenotype: Inactive; Curve_Description: None” in each case.

Take `CCn1c(-c2nonc2N)nc2cncc(C(=O)NCCNC)c21` [GW876790X]: the half-maximal activity concentration (AC50) entry in assay [1] and in assay [2] was “Phenotype: Inactive; Curve_Description: None” each time.

On to `COc1cccc(Nc2nccc(-c3cnn4ncccc34)n2)c1` [PYRAZOLOPYRIDAZINE 1], for which the half-maximal activity concentration (AC50) result in assay [1] and in assay [2] was “Phenotype: Inactive; Curve_Description: None” in each case.

For the compound `COc1cccc(-n2ncc3c(N/N=C/c4ccc(S(C)(=O)=O)cc4)ncnc32)c1` [PYRAZOLOPYRIMIDINE 2], the concentration at half-maximal activity (AC50) entry in assay [1] was “Phenotype: Inactive; Curve_Description: None”; in assay [2] (read-out: AC50) it was 18.3 µM.

`Fc1ccc(-c2ncn(CCCN3CCOCC3)c2-c2ccncc2)cc1` [SB-210313]: the concentration at half-maximal activity (AC50) entry in assay [1] is “Phenotype: Activator; Curve_Description: None”; in assay [2] it was “Phenotype: Inactive; Curve_Description: None”.
